Test results from ChEMBL document CHEMBL1156046, “Amiodarone and its putative metabolites fail to activate wild type hTAAR1” (Bioorg Med Chem Lett, 2009).
Activity calls are given as the source filed them. The rule behind the calls is not given here.

Key:
[1] = molecular target: T1, Trace amine-associated receptor 1 (Homo sapiens) (UniProt Q96RJ0); assay: Activation of human TAAR1 expressed in CHOK1 cells assessed as cAMP accumulation at 0.1 to 1 uM; type: functional, cell-based; settings: CHO-K1
T1 sequence (whole entry): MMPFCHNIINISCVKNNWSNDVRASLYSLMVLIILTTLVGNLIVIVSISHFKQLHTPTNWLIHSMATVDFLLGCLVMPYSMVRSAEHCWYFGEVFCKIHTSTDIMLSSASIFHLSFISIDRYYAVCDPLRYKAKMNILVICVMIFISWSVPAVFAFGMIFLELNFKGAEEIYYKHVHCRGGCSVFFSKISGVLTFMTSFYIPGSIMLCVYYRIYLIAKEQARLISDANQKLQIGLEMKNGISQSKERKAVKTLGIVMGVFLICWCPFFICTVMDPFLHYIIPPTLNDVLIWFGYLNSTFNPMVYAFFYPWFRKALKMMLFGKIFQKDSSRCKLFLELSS

[2] = molecular target: T1, Trace amine-associated receptor 1 (Homo sapiens); assay: Activation of human TAAR1 expressed in CHOK1 cells coexpressing Galpha16 assessed as calcium accumulation at 0.1 to 1 uM relative to beta-phenethylamine; type: functional, cell-based; settings: CHO-K1
[3] = molecular target: T1, Trace amine-associated receptor 1 (Homo sapiens); assay: Activation of human TAAR1 expressed in CHOK1 cells assessed as cAMP accumulation at 10 uM relative to beta-phenethylamine; type: functional, cell-based; settings: CHO-K1
CHO [4] = assay: Effect on calcium mobilization in CHO cells stably expressing Galpha16 at 10 uM relative to beta-phenethylamine; type: functional, Cricetulus griseus
[5] = molecular target: T1, Trace amine-associated receptor 1 (Homo sapiens); assay: Activation of human TAAR1 expressed in CHOK1 cells coexpressing Galpha16 assessed as calcium accumulation relative to control; type: functional, cell-based; settings: CHO-K1
[6] = molecular target: T2, Trace amine-associated receptor 1 (Homo sapiens, UniProt Q96RJ0); assay: Activation of human TAAR1 expressed in CHOK1 cells coexpressing Galpha16 assessed as calcium accumulation; type: functional, cell-based, CHO-K1
T2 sequence (Q96RJ0 whole entry): T1 sequence (whole entry)

CHO [7] = assay: Effect on calcium mobilization in CHO cells stably expressing Galpha16; type: functional, cell-based; settings: Cricetulus griseus

Activity [1]	Activity [2]	Activity [3] [%]	SMILES	other results
inactive	inactive		CCCCc1oc2ccccc2c1C(=O)c1ccc(OCCNCC)c(I)c1	
inactive	inactive		CCCCc1oc2ccccc2c1C(=O)c1ccc(OCCN)cc1	
inactive	inactive	< 5	CCCCc1oc2ccccc2c1C(=O)c1cc(I)c(OCCN)c(I)c1	
inactive	inactive		CCCCc1oc2ccccc2c1C(=O)c1ccc(OCCN(CC)CC)c(I)c1	
inactive	inactive		CCCCc1oc2ccccc2c1C(=O)c1cc(I)c(OCCNCC)c(I)c1 [DESETHYLAMIODARONE]	Activity (CHO [4]): 44%
			NCCOc1ccccc1	Emax [5]: 41%; EC50 [6]: 1790 nM
inactive	inactive	< 5	CCCCc1oc2ccccc2c1C(=O)c1ccc(OCCN)c(I)c1	
inactive	inactive	< 5	CCCCc1oc2ccccc2c1C(=O)c1ccc(OCCNCC)cc1	
inactive	inactive		CCCCc1oc2ccccc2c1C(=O)c1ccc(OCCN(CC)CC)cc1	
inactive			CCCCc1oc2ccccc2c1C(=O)c1cc(I)c(OCCN(CC)CC)c(I)c1	Activity (CHO [7]): inactive
